Measurements: publication PMC12040169 (PLOS Biology, 2025)

Experiment: in vitro
Conditions: human, hela cells, % viability

First: C[S+]([O-])CCn1c2ccccc2c2c(N3CCCC3)nc(N3CCCC3)nc21 (stereo not drawn) [CBK017586]
Second: CCn1ncc(CN2CCC(c3onc4c3CCCC4)CC2)c1C [CBK284576]
The viability at 28.5 h, 10 µM of the first is higher: 91.9% for the first, 90.2% for the second.

First: COC(=O)CCNc1n[nH]c(=O)[nH]c1=O [CBK217927]
Second: CCN(CC(=O)O)S(=O)(=O)c1cc(C)ccc1OC [CBK268694]
The viability at 28.5 h, 10 µM of the first is lower: 90.4% for the first, 98.7% for the second.

First: COCCN(Cc1cnn(C)c1)Cc1cc(O)c2cc(C)ccc2n1 [CBK306723]
Second: Cc1cc(CN(C)Cc2cnn(-c3ccc(F)cc3)c2)n[nH]1 [CBK281706]
The viability at 28.5 h, 10 µM of the first is lower: 86.1% for the first, 97.1% for the second.

First: Cc1c(C(=O)Nc2ccc(C(=O)O)cc2)nnn1-c1ccc(Cl)cc1 [CBK300532]
Second: Cc1ccc(S(=O)(=O)Nc2ccc(C(=O)O)cc2)cc1 [CBK034060]
The viability at 28.5 h, 10 µM of the first is lower: 84.4% for the first, 85.3% for the second.

Compared with CC(Oc1cccc(C#N)c1)C(=O)N1CCSCC1 (stereo not drawn) [CBK305748], N#Cc1c[nH]c(C(=O)NC2CCN(C(=O)c3ccccc3)CC2)c1 [CBK306433] is lower in viability at 28.5 h, 10 µM: 97% for the first, 91% for the second.

Going from Cc1cccc(OCC(=O)NC(=S)Nc2cccc(C(=O)O)c2C)c1 [CBK265067] to O=C(/C=C/c1ccc([N+](=O)[O-])cc1)Nc1ccc(O)cc1C(=O)O [CBK263613], the viability at 28.5 h, 10 µM falls from 96.3% to 81%.

First: Cc1cccc(Oc2nc3c(C)cccn3c(=O)c2/C=C(\C#N)c2nc3ccccc3[nH]2)c1 [CBK266528]
Second: COc1cc2c(cc1NC(=O)CSc1nc3ccccc3[nH]1)oc1ccccc12 [CBK265153]
The viability at 28.5 h, 10 µM of the first is higher: 104% for the first, 100% for the second.

Compared with Cc1csc(-c2ccc(C(=O)N(C)CCN(C)C)c(NCC3CC3)n2)c1 [CBK106279], COCCNc1nc(-c2cccc(Cl)c2Cl)ccc1C(=O)N(C)CCN(C)C [CBK105922] is higher in viability at 28.5 h, 10 µM: 84.2% for the first, 98.3% for the second.

Going from COc1cccc(C(=O)N2CCC(Cc3ccccc3-c3ccccc3)(C(N)=O)CC2)c1 [CBK285729] to CNC(=O)C1(Cc2ccccc2-c2cccs2)CCN(C(=O)COc2ccccc2)CC1 [CBK285684], the viability at 28.5 h, 10 µM rises from 93.6% to 118%.

Going from CC(NC(=O)N1CCC2(CC1)NC(=O)Cc1ccccc12)c1cccc2ccccc12 (stereo not drawn) [CBK047280] to COc1ccccc1-c1cccc(C2CCCN(C(=O)CCCc3ccccc3)C2)n1 (stereo not drawn) [CBK286217], the viability at 28.5 h, 10 µM rises from 84% to 100%.

Compared with COc1cc2ccccc2cc1C(=O)Nc1nnc(-c2ccncc2)o1 [CBK287432], Fc1cccc(Nc2nc(-c3ccncc3)nc3ccccc23)c1 [CBK072732] is lower in viability at 28.5 h, 10 µM: 93.1% for the first, 89.5% for the second.

Going from Nc1ccc2nc(-c3ccccn3)[nH]c2c1 [CBK017167] to FC(F)(F)c1nc2ccccc2nc1Sc1ccccn1 [CBK093781], the viability at 28.5 h, 10 µM falls from 100% to 89%.

Going from Cc1ccccc1-n1ccn(C(=O)CCC2CCCC2)c1=O [CBK106571] to O=C(O)CCC(=O)N1CCCc2ccccc21 [CBK051167], the viability at 28.5 h, 10 µM falls from 106% to 92.6%.

Going from O=C(O)C1CCCN(C(=O)NCc2ccc3c(c2)OCO3)C1 (stereo not drawn) [CBK161346] to Cc1cc(Cc2ccccc2Cl)cc(C2CCCN(CC(=O)N(C)C)C2)n1 (stereo not drawn) [CBK286262], the viability at 28.5 h, 10 µM falls from 93.4% to 87.6%.

Going from Cc1occc1-c1nn(C2CCNCC2)c(=O)o1 [CBK284757] to Cc1c2c(nn1C)CSc1ccccc1C2=O [CBK006517], the viability at 28.5 h, 10 µM falls from 98.5% to 92.8%.

Compared with CCC(=O)N1CCCc2cc(C(O)CN3CCC(C)CC3)ccc21 (stereo not drawn) [CBK282144], CCOC(=O)C1(C2CCCCC2)CCN(C(=O)c2cccc(C(F)(F)F)c2)CC1 [CBK136920] is lower in viability at 28.5 h, 10 µM: 105% for the first, 91.7% for the second.

Compared with O=C(O)c1ccccc1-c1ccccc1C(=O)NCCc1ccccc1 [CBK263394], O=C(NCCc1c[nH]c2ccccc12)c1nn(-c2ncccn2)c2ccccc12 [CBK048496] is lower in viability at 28.5 h, 10 µM: 113% for the first, 77.7% for the second.

First: Cc1cc(C)nc(SCC(=O)N/N=C2/C(=O)Nc3ccccc32)n1 [CBK262883]
Second: Cc1nc2c(ccc3nc(NC(=O)c4ccccc4)sc32)s1 [CBK287560]
The viability at 28.5 h, 10 µM of the first is higher: 108% for the first, 91.7% for the second.

Compared with N=C1NC(=O)/C(=C/c2c(OS(=O)(=O)c3ccc(Cl)cc3)ccc3ccccc23)S1 [CBK265311], O=C(O)CC(CNC(=O)Cc1c[nH]c2ccccc12)c1ccc(Cl)cc1 (stereo not drawn) [CBK286598] is higher in viability at 28.5 h, 10 µM: 89.6% for the first, 91.7% for the second.

First: O=C1NC[C@@H](Cc2ccccc2)NC(=O)C2(C/C=C/COc3ccccc31)CCN(C(=O)CN1CCCC1)CC2 [CBK292184]
Second: NC(=O)CN1CCCC2(CCN(C(=O)Cc3c[nH]c4ccccc34)C2)C1 (stereo not drawn) [CBK132046]
The viability at 28.5 h, 10 µM of the first is higher: 103% for the first, 87.4% for the second.

Compared with CCN1CCN(C(=O)c2nccnc2C(=O)O)CC1 [CBK286718], CCc1nc2ccc(C(=O)N3CCN(C)CC3)cn2c1N(C)Cc1nccn1C [CBK146299] is higher in viability at 28.5 h, 10 µM: 88.8% for the first, 115% for the second.

Compared with COCC(=O)N1CCc2sccc2C1c1ccc(NCc2ccc(OC)cc2)cc1 (stereo not drawn) [CBK286458], CC(C)(Oc1ccc(Cl)cc1)C(=O)Nc1ccc(CN2C(=O)CNC2=O)cc1 [CBK296668] is higher in viability at 28.5 h, 10 µM: 85.1% for the first, 103% for the second.

First: CS(=O)(=O)Nc1ncc(Br)cc1C(=O)NCc1ccc(F)cc1 [CBK076538]
Second: Cc1cc(C(=O)NCCc2ccc(S(N)(=O)=O)cc2)no1 [CBK268130]
The viability at 28.5 h, 10 µM of the first is lower: 89.6% for the first, 99.3% for the second.

Going from O=S(=O)(c1ccc(Cl)s1)N1CCN(c2ccccc2Cl)CC1 [CBK045098] to Cc1c(Cl)cccc1S(=O)(=O)N1CCCN(c2nc3ccc(Cl)cc3s2)CC1 [CBK014131], the viability at 28.5 h, 10 µM falls from 98% to 95.6%.

Going from CC(C)(C)OC(=O)c1cc(C(=O)O)ccc1O [CBK000394] to Cc1ccccc1NC(=O)CC(C(=O)O)N(C)C (stereo not drawn) [CBK266924], the viability at 28.5 h, 10 µM rises from 90% to 103%.

Going from CCOC(=O)CCCCNC(O)C(Cl)(Cl)Cl (stereo not drawn) [CBK261003C] to CCOC(=O)CSC/C(=N/Nc1ccccc1)c1cccs1 [CBK006956], the viability at 28.5 h, 10 µM falls from 106% to 102%.

Going from Cn1nc(C(=O)NCC(c2ccccc2Cl)N2CCOCC2)ccc1=O (stereo not drawn) [CBK305886] to Cn1c(=O)c2c(nc(CN3CCOCC3)n2Cc2c(F)cccc2Cl)n(C)c1=O [CBK269224], the viability at 28.5 h, 10 µM rises from 87.3% to 98.9%.

Compared with O=S(=O)(NCC1CCCO1)c1ccc2oc3ccc(S(=O)(=O)NCC4CCCO4)cc3c2c1 (stereo not drawn) [CBK265914], CCCC(=O)c1ccc(S(=O)(=O)N2CCCN(Cc3ccc(OC)c(F)c3)CC2)cc1 [CBK062926] is lower in viability at 28.5 h, 10 µM: 96.2% for the first, 93.7% for the second.

Compared with O=C(NCC(O)c1ccc([N+](=O)[O-])cc1)c1cccc(S(=O)(=O)N2CCCC2)c1 (stereo not drawn) [CBK268847], O=C(O)c1cccc(OCc2nnnn2-c2ccc(Br)cc2)c1 [CBK286744] is lower in viability at 28.5 h, 10 µM: 119% for the first, 82.7% for the second.

First: FC(F)(F)c1ccnc(OCCOc2ccc(Cl)cc2)n1 [CBK115838]
Second: Cn1c(SCC(=O)c2ccc(Cl)cc2)nnc1-c1cnccc1C(F)(F)F [CBK067698]
The viability at 28.5 h, 10 µM of the first is lower: 90.8% for the first, 110% for the second.

First: O=C(COc1ccc2oc3ccccc3c2c1)c1ccccc1 [CBK268931]
Second: O=C1CSC2(C(=O)N(Cc3cccc(C(F)(F)F)c3)c3ccccc32)N1c1ccccc1 (stereo not drawn) [CBK092392]
The viability at 28.5 h, 10 µM of the first is lower: 99.5% for the first, 108% for the second.

Going from COCc1ccc(C(=O)N2CCN3C(=O)CCC32C)o1 (stereo not drawn) [CBK282091] to COc1ccc2c(c1)OC1(CCN(C(=O)C3CCCC3)CC1)CC2O (stereo not drawn) [CBK286400], the viability at 28.5 h, 10 µM falls from 104% to 84.4%.

Compared with CN(C)C(C)(C)COc1ncccc1OCCO [CBK042184], CCOc1ccsc1C(=O)Nc1cc(C)ccn1 [CBK004029] is lower in viability at 28.5 h, 10 µM: 112% for the first, 88.3% for the second.

First: COc1cc(OC)nc(CC(=O)O)n1 [CBK103537]
Second: O=C(O)Cn1c2ccc(Cl)cc2c2nc3ccccc3nc21 [CBK265712]
The viability at 28.5 h, 10 µM of the first is higher: 104% for the first, 97.8% for the second.

Going from COc1ccc(-c2cnc(N)c(N[C@@H](C)c3ccccc3)n2)c(OC)c1OC [CBK063763] to Nc1ncc(-c2cccnc2)nc1NCc1ccccc1 [CBK063349], the viability at 28.5 h, 10 µM rises from 84.9% to 102%.

Compared with CC(=O)c1cc(C(=O)NC(c2ccccc2)c2cccnc2)cs1 (stereo not drawn) [CBK282514], CC(C)(C)C(=O)NCCCC(=O)Nc1nc2ccc(Oc3ccccc3)cc2s1 [CBK296652] is lower in viability at 28.5 h, 10 µM: 125% for the first, 97.9% for the second.

First: COc1ccc(CN2CCC(Oc3nccnc3OCc3cc(C)on3)CC2)cc1 [CBK082953T]
Second: O=C(CCc1ccncc1)N1CCOC(c2ccc(F)cc2F)C1 (stereo not drawn) [CBK304692]
The viability at 28.5 h, 10 µM of the first is lower: 93.7% for the first, 98.3% for the second.

Compared with COc1ccc([C@@]23CC[C@@H](NC(=O)Nc4cc(C)ccc4F)C[C@@H]2N(C)CC3)cc1OC [CBK036509T], CCOCCCNC(=O)c1cnn2c(C)c(Cc3cccc(OC)c3)c(C)nc12 [CBK162056] is higher in viability at 28.5 h, 10 µM: 102% for the first, 113% for the second.

Going from O=C(O)/C=C(/CC(=O)O)C(=O)O [CBK260936] to O=C(NN=Cc1ccc(O)cc1)c1cc[n+](Cc2ccccc2)cc1 [CBK262047C], the viability at 28.5 h, 10 µM falls from 102% to 87.3%.

Going from CCOC(=O)c1c(NC(=O)c2cc(-c3ccc(Cl)s3)nc3ccccc23)sc(C)c1CC [CBK262657] to Cc1nnc2sc(-c3ccc(NC(=S)NC(=O)c4cc5ccccc5o4)cc3)nn12 [CBK266795], the viability at 28.5 h, 10 µM falls from 107% to 100%.

First: Cc1nn(-c2ccc(F)cc2)c2[nH]c(=O)c(CNC(C)C)cc12 [CBK283119]
Second: CC(Oc1cccc(F)c1)C(=O)N(Cc1cccnc1)CC1CCCO1 (stereo not drawn) [CBK305313]
The viability at 28.5 h, 10 µM of the first is lower: 95.7% for the first, 108% for the second.

Going from CC(=O)N1CC(C)(C)c2ccccc21 [CBK003715] to O=C(NC1CC1)c1ccc(-n2cccn2)c(C#Cc2ccccn2)c1 [CBK282272], the viability at 28.5 h, 10 µM rises from 99.6% to 106%.

First: CC1CCCCN1S(=O)(=O)c1cccc2nonc12 (stereo not drawn) [CBK261723]
Second: N#CCc1ccc(OC(=O)c2cccnc2)cc1 [CBK090304]
The viability at 28.5 h, 10 µM of the first is lower: 94.5% for the first, 105% for the second.

Compared with CC(C)(C)/N=C1/SCC(C)(/C=N\O)S1 (stereo not drawn) [CBK009726], O=C(O)c1cc(-c2ccc(-c3ccc(Cl)c(C(F)(F)F)c3)o2)nc2ccc(F)cc12 [CBK300501] is higher in viability at 28.5 h, 10 µM: 98.7% for the first, 111% for the second.

Same assay, conditions: human, hela cells, % viability, bulk resorufin, single well

Compared with CCN1CCN(Cc2cc(Br)c(OC)cc2OC)CC1 [CBK261566], Cc1ccccc1N1C(=O)NC(=O)C(CCc2ccncc2)(Cc2ccc3c(c2)OCO3)C1=O (stereo not drawn) [CBK266289] is lower in viability at 28.5 h, 10 µM: 103% for the first, 92% for the second.
